Assay results taken from US20250051277A1, “DELIVERY OF THERAPEUTIC ALKALOID COMPOUNDS” (Sensorium Therapeutics, Inc., priority 2021, published 2025).
Like-named read-outs stand apart in the source and are kept apart here.

Key:
[1] = Hydrolysis Assay of Example A1 (conversion by LCMS); assay type: physicochemical; conditions: for Conversion (%) / Notes (hydrolysis): 0.5 mM, 0.01M HCl
Procedure: The hydrolysis kinetics was under a certain temperature and measured by LCMS at a certain time interval. The corresponding LCMS chromatograms were recorded and the conversions were calculated. The hydrolysis conditions and the data were summarized in below table. LCMS spectra were obtained using Agilent 1200/G1956A or SHIMADZU LCMS-2020. Standard LCMS conditions were as follows (running time 1.55 minutes): • Acidic condition: Mobile Phase A: 0.0375% TFA in water (v/v). Mobile Phase B: 0.01875% TFA in acetonitrile (v/v); Column: Kinetex EVO C18 30*2.1 mm, 5 μm. • Basic condition: Mobile Phase A: 0.025% NH3·H2O in water (v/v). Mobile Phase B: Acetonitrile; Column: Kinetex EVO C18 2.1×30 mm, 5 μm. • Conversion (%)=peak area 1/(peak area 1+peak area 2)*100%, peak area 1 is the integration of hydrolyzed product, peak area 2 is the integration of starting material.

[2] = assay type: physicochemical; conditions: SGF with pepsin, pH 1.5, 37° C., 0.5 mM
[3] = Plasma Stability Assay of Example A3, mouse plasma; conditions: 5 μM, 37° C., % of prodrug compound remaining
[4] = Plasma Stability Assay of Example A3, human plasma; conditions: 5 μM, 37° C., % of prodrug compound remaining
[5] = assay type: physicochemical; conditions: DI water, 25° C., 0.5 mM
[6] = 5 μM

SMILES	Condition 1 Conversion (%) ([2]; time 1 min)	Condition 1 Conversion (%) ([2]; time 5 min)	Condition 1 Conversion (%) ([2]; time 30 min)	Condition 1 Conversion (%) ([2]; time 1 h)	Condition 1 Conversion (%) ([2]; time 4 h)	Condition 1 Conversion (%) ([2]; time 24 h)	Mouse Plasma Prodrug (%) ([3]; 0 min)	Mouse Plasma Prodrug (%) ([3]; 15 min)	Mouse Plasma Prodrug (%) ([3]; 30 min)	Mouse Plasma Prodrug (%) ([3]; 60 min)	Mouse Plasma Prodrug (%) ([3]; 120 min)	Mouse Plasma Prodrug (%) ([3]; 240 min)	Human Plasma Prodrug (%) ([4]; 0 min)	Human Plasma Prodrug (%) ([4]; 15 min)	Human Plasma Prodrug (%) ([4]; 30 min)	Human Plasma Prodrug (%) ([4]; 60 min)	Human Plasma Prodrug (%) ([4]; 120 min)	Human Plasma Prodrug (%) ([4]; 240 min)	Condition 2 Conversion (%) ([5]; time 1 min)	Condition 2 Conversion (%) ([5]; time 5 min)	also measured
COc1ccc([C@]23CCN(C)[C@H]2CC2(CC3)OCCO2)cc1OC (racemic) [Compound 013, 3′a-(3,4-dimethoxyphenyl)-1′-methyl-spiro[1,3-dioxolane-2,6′-2,3,4,5,7,7a-hexahydroindole]]																					conversion to mesembrine in the Hydrolysis Assay ([1]; acidic pH 2.0, 5° C. as printed): not at 5 °C; conversion to mesembrine in the Hydrolysis Assay ([1]; acidic pH 2.0, temperatures of 37 and 50° C.): converted to mesembrine; Conversion (%) ([1]; pH = 2.0, 25° C., 0-24 h): 0%; Notes (hydrolysis) ([1]; pH = 2.0, 25° C., 0-24 h): Stable; Conversion (%) ([1]; pH = 2.0, 37° C., 16 h): 17%; Conversion (%) ([1]; pH = 2.0, 37° C., 24 h): 22%; Conversion (%) ([1]; pH = 2.0, 37° C., 42 h): 35%; Conversion (%) ([1]; pH = 2.0, 37° C., 56 h): 50%; Conversion (%) ([1]; pH = 2.0, 37° C., 7 d): 77%; Conversion (%) ([1]; pH = 2.0, 50° C., 10 min): 1%; Conversion (%) ([1]; pH = 2.0, 50° C., 40 min): 2%; Conversion (%) ([1]; pH = 2.0, 50° C., 120 min): 19%; Conversion (%) ([1]; pH = 2.0, 50° C., 22 h): 90%
COc1ccc([C@@]23CC/C(=N\NC(=O)c4cccnc4)C[C@@H]2N(C)CC3)cc1OC [Compound 036, N-[[(3aS,7aS)-3a-(3,4-dimethoxyphenyl)-1-methyl-2,3,4,5,7,7a-hexahydroindol-6-ylidene]amino]pyridine-3-carboxamide]	100	100	100	100	100	100															Notes (hydrolysis) ([1]; pH = 2.0, 37° C., 0 to 1 min): Hydrolyzed; Conversion (%) ([1]; pH = 2.0, 37° C., 1 min): 100%; Conversion (%) ([1]; pH = 2.0, 37° C., time 0): 0%
COc1ccc([C@]23CCN(C)[C@H]2CC2(CC3)SCCS2)cc1OC (racemic) [Compound 014, (7′aS)-3′a-(3,4-dimethoxyphenyl)-1′-methyl-spiro[1,3-dithiolane-2,6′-2,3,4,5,7,7a-hexahydroindole]]																					Conversion (%) ([1]; pH = 2.0, 25° C., 0-24 h): 0%; Notes (hydrolysis) ([1]; pH = 2.0, 25° C., 0-24 h): Stable
COc1ccc([C@@]23CCC(OC(=O)C4CC4)=C[C@@H]2N(C)CC3)cc1OC [Compound 312, [(3aS,7aS)-3a-(3,4-dimethoxyphenyl)-1-methyl-3,4,5,7a-tetrahydro-2H-indol-6-yl]cyclopropanecarboxylate]	0	0	0	0	0	0	100.0	3.5	1.6	2.2	2.8	0.8	100.0	8.1	6.2	20.9	10.5	13.8	0	0	Condition 2 Conversion (%) ([5]; time 30 min): 0%; Condition 2 Conversion (%) ([5]; time 1 h): 0%; Condition 2 Conversion (%) ([5]; time 4 h): 0%; Condition 2 Conversion (%) ([5]; time 24 h): 0%; Mouse Plasma Compound 001 (%) ([6]; 15 min): 66.1%; Mouse Plasma Compound 001 (%) ([6]; 30 min): 70.8%; Mouse Plasma Compound 001 (%) ([6]; 60 min): 64.4%; Mouse Plasma Compound 001 (%) ([6]; 120 min): 61.7%; Mouse Plasma Compound 001 (%) ([6]; 240 min): 61.5%
C=C(C)C(=O)OC1=C[C@@H]2N(C)CC[C@]2(c2ccc(OC)c(OC)c2)CC1 [Compound 315, [(3aS,7aS)-3a-(3,4-dimethoxyphenyl)-1-methyl-3,4,5,7a-tetrahydro-2H-indol-6-yl]-2-methylprop-2-enoate]	0	0	0	0	0	0	100.0	5.3	2.4	1.3	2.0	1.9	100.0	16.6	2.3	0.5	0.2	0.0	0	0	Condition 2 Conversion (%) ([5]; time 30 min): 0%; Condition 2 Conversion (%) ([5]; time 1 h): 0%; Condition 2 Conversion (%) ([5]; time 4 h): 0%; Condition 2 Conversion (%) ([5]; time 24 h): 0%; Mouse Plasma Compound 001 (%) ([6]; 15 min): 60.4%; Mouse Plasma Compound 001 (%) ([6]; 30 min): 61.9%; Mouse Plasma Compound 001 (%) ([6]; 120 min): 57.3%; Mouse Plasma Compound 001 (%) ([6]; 240 min): 55.8%
C/C=C(\C)C(=O)OC1=C[C@@H]2N(C)CC[C@]2(c2ccc(OC)c(OC)c2)CC1 [Compound 313, [(3aS,7aS)-3a-(3,4-dimethoxyphenyl)-1-methyl-3,4,5,7a-tetrahydro-2H-indol-6-yl](E)-2-methylbut-2-enoate]	0	0	0	0	0	0	100.0	2.1	0.7	0.1	0.0	0.0	100.0	62.2	35.1	12.8	2.4	0.4	0	0	Condition 2 Conversion (%) ([5]; time 30 min): 0%; Condition 2 Conversion (%) ([5]; time 1 h): 0%; Condition 2 Conversion (%) ([5]; time 4 h): 0%; Condition 2 Conversion (%) ([5]; time 24 h): 0%; Mouse Plasma Compound 001 (%) ([6]; 15 min): 37.2%; Mouse Plasma Compound 001 (%) ([6]; 30 min): 36.3%; Mouse Plasma Compound 001 (%) ([6]; 60 min): 37.1%; Mouse Plasma Compound 001 (%) ([6]; 120 min): 35.2%; Mouse Plasma Compound 001 (%) ([6]; 240 min): 35.0%
